The target of one assay is T1, Human recombinant MMP-9 (Homo sapiens, UniProt P14780).
T1 construct: made in house; host or cells: MMP-9-transfected HT1080 cells (spent media)
Description: In vitro MMP inhibition analysis (fluorogenic peptide substrate), MMP-9. The following applies: human recombinant enzyme; 4 μM substrate (A); apparent Ki without substrate correction. Format: biochemical. As to the method: (§1) Several compounds and salts were analyzed in an in vitro assay to determine their ability to inhibit the MMP cleavage of peptide substrates. Inhibition constant (Ki) were calculated from the assayed compound-MMP interactions.
(§2) Human recombinant MMP-1, MMP-2, MMP-9, MMP-13, and MMP-14 were used in this assay. All enzymes were prepared in Assignee's laboratories following usual laboratory procedures. Protocols for the preparation and use of these enzymes are available in the scientific literature. See, e.g., Enzyme Nomenclature (Academic Press, San Diego, Calif., 1992) (and the citations therein). See also, Freije et al., J. Biol. Chem., 269(24), 16766-16773 (1994).
The MMP-9 proenzyme was purified by gelatin Sepharose chromatography from spent media of MMP-9-transfected HT1080 cells provided by Dr. Howard Welgus of Washington University (St. Louis, Mo.).
(§3) All MMPs were activated using 4-aminophenylmercuric acetate (“APMA”, Sigma Chemical, St. Louis, Mo.) or trypsin. MMP-9 also was activated using human recombinant MMP-3 (purified in Assignee's laboratory following standard cloning and purification techniques).
(§4) The following fluorogenic, methoxycoumarin-containing polypeptide substrate (A) was used in the MMP inhibition assays:
(§5) MCA-ArgProLeuGlyLeuDpaAlaArgGluArgNH2 (A)
(§6) “MCA” is 7-methoxycoumarin-4-yl acetyl. Substrate (A) was prepared Assignee's laboratory. In the absence of MMP inhibitory activity, the substrate is cleaved at the Gly-Leu peptide bond. This cleavage separates the highly fluorogenic peptide from the 2,4-dinitrophenyl quencher, thus resulting in increase of fluorescent intensity.
(§7) The stock solutions of the assayed compounds and salts were prepared in 1% dimethyl sulfoxide (DMSO). These stock solutions were diluted in Buffer A (100 mM Tris-HCl, 100 mM NaCl, 10 mM CaCl2, 0.05% polyoxyethylene 23 lauryl ether, pH 7.5) to obtain solutions with different compound concentrations, i.e., assay solutions with different concentrations of the assayed MMP inhibitory compound. The experiment controls contained the same amount of Buffer A/DMSO as the assayed sample, but contained none of the tested compound or salt.
(§8) The assays from which the Ki determinations were made were performed as follows. The assayed compound samples were incubated in separate wells of untreated white polystyrene plates (Nunc Nalgene International, Rochester, N.Y.), and analyzed on a Tecan SpectraFlour Plus plate reader. The excitation wavelength was 330 nm, and the emission wavelength -420 nm. All samples (assayed compounds and controls) were incubated in separate plate wells at room temperature for 1 hr in the presence of 4 μM of MMP substrate (A). In the absence of MMP inhibitory activity, substrate (A) was cleaved at the Gly-Leu bond resulting in an increase of relative fluorescence. Inhibition was observed as a reduced rate of this increase in relative fluorescence. […] This protocol is a modification of method by Knight et al., FEBS Lett., 296(3), 263-266 (1992). Apparent inhibitory constants were determined by non-linear regression of reaction velocity as a function of inhibitor and enzyme concentration using Morrison's equation, as described by Kuzmic, P., et al., Anal. Biochem., 286(1):45-50 (2000). Modifications were made in the non-linear regression method to allow a common control reaction rate and effective enzyme concentration to be shared between all dose-response relationships on a given assay plate. Since the substrate concentration was chosen to be at or below the Km, the apparent Ki's from this analysis were reported as Ki's without correction for the influence of substrate.
The above protocols were used to determine MMP inhibition Ki constants for the compounds in Examples 1, 2, and 4-42 above. All Ki values in Table 3 are given in nM units.

In a further assay the target is T2, Human recombinant MMP-13 (Homo sapiens, UniProt P45452).
T2 construct: made in house; host or cells: baculovirus / insect cells
Description: In vitro MMP inhibition analysis (fluorogenic peptide substrate), MMP-13. Format: biochemical. As to conditions: human recombinant enzyme; 4 μM substrate (A); apparent Ki without substrate correction. The procedure:
as §1, §2
The MMP-13 was obtained as a proenzyme from a full-length cDNA clone using baculovirus, as described by V. A. Luckow, “Insect Cell Expression Technology,” Protein Engineering: Principles and Practice, pp. 183-218 (edited by J. L. Cleland et al., Wiley-Liss, Inc., 1996). The expressed proenzyme was first purified over a heparin agarose column, and then over a chelating zinc chloride column. The proenzyme was then activated by APMA for use in the assay. […] See also, O'Reilly et al, Baculovirus Expression Vectors: A Laboratory Manual (W. H. Freeman and Co., New York, N.Y., 1992). See also, King et al., The Baculovirus Expression System: A Laboratory Guide (Chapman & Hall, London, England, 1992).
as §3, §4, §5, §6, §7
as §8, with “Modifications were made in the non-linear regression method to allow a common control reaction rate and effective enzyme concentration to be shared between all dose-response relationships on a given assay plate.” left out
All Ki values in Table 3 are given in nM units.

In patent US20040142979A1, “Heteroarylsulfonylmethyl hydroxamic acids and amides and their use as protease inhibitors” (priority 2002, published 2004) one finds Ki data, which are given here for 33 compounds.

The structures appear in SMILES notation. pKi: −log10 of the molar value. A value given as a limit tells only on which side of the number the result lay.

T1 sequence (P14780 107-707 limits assumed): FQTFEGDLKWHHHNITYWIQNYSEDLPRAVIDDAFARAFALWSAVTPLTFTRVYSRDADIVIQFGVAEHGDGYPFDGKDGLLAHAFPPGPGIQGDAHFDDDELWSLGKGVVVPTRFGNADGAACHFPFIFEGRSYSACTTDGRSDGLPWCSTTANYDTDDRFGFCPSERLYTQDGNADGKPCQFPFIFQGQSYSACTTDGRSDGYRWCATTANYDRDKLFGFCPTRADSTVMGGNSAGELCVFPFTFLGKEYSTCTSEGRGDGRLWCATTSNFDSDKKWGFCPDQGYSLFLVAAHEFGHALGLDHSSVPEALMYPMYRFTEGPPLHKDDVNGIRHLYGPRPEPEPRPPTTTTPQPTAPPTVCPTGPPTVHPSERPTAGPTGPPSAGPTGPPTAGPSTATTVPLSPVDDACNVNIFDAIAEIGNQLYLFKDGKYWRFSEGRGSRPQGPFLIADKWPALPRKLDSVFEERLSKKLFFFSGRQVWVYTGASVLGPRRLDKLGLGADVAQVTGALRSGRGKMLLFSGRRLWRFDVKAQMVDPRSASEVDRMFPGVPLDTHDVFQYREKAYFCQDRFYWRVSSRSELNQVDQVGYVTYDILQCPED

The pKi is the negative decadic logarithm of the Ki, by convention in mol/L. Consider `CCCCOc1ccc(-c2ccc(S(=O)(=O)C3(C(=O)NO)CCOCC3)s2)cc1` [Example 43], for which the pKi at Human recombinant MMP-9 was 9.09; on Human recombinant MMP-13, 9.90.

`O=C(NO)C1(S(=O)(=O)c2ccc(-c3ccc(OC(F)(F)C(F)F)cc3)s2)CCOCC1` [Example 44]: the values for the pKi on Human recombinant MMP-9 and on Human recombinant MMP-13 were 9.45 and 9.87, respectively.

`CCCCCc1ccc(-c2ccc(S(=O)(=O)C3(C(=O)NO)CCOCC3)cn2)cc1` [Example 45]: the pKi on Human recombinant MMP-9 is 8.05; on Human recombinant MMP-13 it was 8.92.

With `O=C(NO)C1(S(=O)(=O)c2ccc(-c3ccc(OCC(F)(F)F)cc3)nc2)CCOCC1` [Example 46], the pKi on Human recombinant MMP-9 was 9.01; at Human recombinant MMP-13, 9.77.

For the compound `O=C(NO)C1(S(=O)(=O)c2ccc(-c3ccc(OC(F)(F)C(F)F)cc3)nc2)CCOCC1` [Example 47], the figures for the pKi at Human recombinant MMP-9 and at Human recombinant MMP-13 were 8.82 and 9.51, respectively.

Take `O=C(NO)C1(S(=O)(=O)c2ccc(-c3ccc(OC(F)(F)C(F)F)cc3)nc2)CCOCC1` [Example 48]: the values for the pKi at Human recombinant MMP-9 and at Human recombinant MMP-13 were 8.97 and 9.72, respectively.

On to `O=C(NO)C1(S(=O)(=O)c2ccc(-c3ccc(CCC(F)(F)C(F)(F)F)cn3)s2)CCOCC1` [Example 49], for which the pKi at Human recombinant MMP-9 is 7.99; at Human recombinant MMP-13, 9.09.

`O=C(NO)C1(S(=O)(=O)c2ccc(-c3ccc(C(F)(F)F)cn3)s2)CCOCC1` [Example 50]: the pKi at Human recombinant MMP-9 is 6.88; at Human recombinant MMP-13, 7.99.

For the compound `O=C(NO)C1(S(=O)(=O)c2ccc3nc(-c4ccc(OC(F)(F)F)cc4)sc3c2)CCOCC1` [Example 51], the pKi on Human recombinant MMP-9 is 9.20; on Human recombinant MMP-13, 9.56.

With `CCCCc1ccc(C(=O)C2CCN(c3nc4ccc(S(=O)(=O)C5(C(=O)NO)CCOCC5)cc4s3)CC2)s1` [Example 52], the figures for the pKi at Human recombinant MMP-9 and on Human recombinant MMP-13 were 6.08 and 8.80, respectively.

For `CCCc1ccc(-c2nc3ccc(S(=O)(=O)C4(C(=O)NO)CCOCC4)cc3s2)cc1` [Example 53], the figures for the pKi on Human recombinant MMP-9 and at Human recombinant MMP-13 were 7.89 and 9.50, respectively.

Take `CC(C)Cc1ncc(-c2nc3ccc(S(=O)(=O)C4(C(=O)NO)CCOCC4)cc3s2)s1` [Example 54]: the pKi was 7.00 at Human recombinant MMP-9 and 8.56 on Human recombinant MMP-13.

Turning to `O=C(NO)C1(S(=O)(=O)c2ccc3nc(-c4cccc(C(F)(F)F)c4)sc3c2)CCOCC1` [Example 55], the pKi is 5.48 on Human recombinant MMP-9 and 6.75 on Human recombinant MMP-13.

In the case of `O=C(NO)C1(S(=O)(=O)c2ccc3nc(N4CCC(Oc5ccc(OC(F)(F)F)cc5)CC4)sc3c2)CCOCC1` [Example 56], the pKi at Human recombinant MMP-9 was 7.16; on Human recombinant MMP-13, 8.46.

Consider `O=C(NO)C1(S(=O)(=O)c2ccc3nc(-c4ccc(C(F)(F)F)cc4)sc3c2)CCOCC1` [Example 57], for which the pKi at Human recombinant MMP-9 was 9.02; at Human recombinant MMP-13, 9.42.

As to `CCc1ccc(-c2nc3ccc(S(=O)(=O)C4(C(=O)NO)CCOCC4)cc3s2)cc1` [Example 58], the pKi on Human recombinant MMP-9 was 8.97; on Human recombinant MMP-13, 9.47.

Take `O=C(NO)C1(S(=O)(=O)c2ccc3nc(-c4ccc(Cl)s4)sc3c2)CCOCC1` [Example 59]: the pKi was 8.29 on Human recombinant MMP-9 and 9.23 on Human recombinant MMP-13.

Consider `O=C(NO)C1(S(=O)(=O)c2ccc3nc(-c4ccc(F)c(F)c4)sc3c2)CCOCC1` [Example 60], for which the pKi was 7.85 on Human recombinant MMP-9 and 8.81 at Human recombinant MMP-13.

Turning to `O=C(NO)C1(S(=O)(=O)c2ccc3nc(-c4ccc(F)cc4F)sc3c2)CCOCC1` [Example 61], the figures for the pKi at Human recombinant MMP-9 and at Human recombinant MMP-13 were 7.67 and 8.53, respectively.

For the compound `O=C(NO)C1(S(=O)(=O)c2ccc3nc(-c4ccsc4)sc3c2)CCOCC1` [Example 62], the pKi at Human recombinant MMP-9 is 7.39; at Human recombinant MMP-13, 8.87.

On to `COCCN1CCC(C(=O)NO)(S(=O)(=O)c2ccc3nc(-c4ccc(OC(F)(F)F)cc4)sc3c2)CC1` [Example 63], for which the pKi at Human recombinant MMP-9 is 9.20; on Human recombinant MMP-13 it was 9.51.

As for `O=C(NO)C1(S(=O)(=O)c2ccc3nc(-n4cnc(-c5ccccc5)c4)sc3c2)CCOCC1` [Example 64], the results for the pKi at Human recombinant MMP-9 and at Human recombinant MMP-13 were 6.10 and 7.66, respectively.

With `O=C(NO)C1(S(=O)(=O)c2ccc3nc(-c4ccc5c(c4)OCO5)sc3c2)CCOCC1` [Example 65], the pKi was 8.14 on Human recombinant MMP-9 and 8.98 at Human recombinant MMP-13.

As for `CCOc1ccc(-c2nc3ccc(S(=O)(=O)C4(C(=O)NO)CCOCC4)cc3s2)cc1` [Example 66], the pKi on Human recombinant MMP-9 is 8.47; on Human recombinant MMP-13 it was 10.09.

For the compound `O=C(NO)C1(S(=O)(=O)c2ccc3nc(-c4ccc(SC(F)(F)F)cc4)sc3c2)CCOCC1` [Example 67], the pKi on Human recombinant MMP-9 was 9.33; at Human recombinant MMP-13, 9.53.

For the compound `O=C(NO)C1(S(=O)(=O)c2ccc(-c3ccc(CCC(F)(F)F)cc3)nc2)CCOCC1` [Example 68], the pKi on Human recombinant MMP-9 was 8.55; on Human recombinant MMP-13, 9.14.

For `O=C(NO)C1(S(=O)(=O)c2ccc(-c3ccc(CCC(F)(F)C(F)(F)F)cc3)nc2)CCOCC1` [Example 69], the pKi at Human recombinant MMP-9 was 8.05; on Human recombinant MMP-13 it was 9.27.

Consider `CCCCc1ccc(C(=O)C2CCN(c3ccc(S(=O)(=O)C4(C(=O)NO)CCOCC4)cn3)CC2)s1` [Example 70], for which the pKi at Human recombinant MMP-9 is less than 5.00; at Human recombinant MMP-13 it was 8.74.

Take `CC(C)CN(C)C(=O)Cc1ccc(-c2ccc(S(=O)(=O)C3(C(=O)NO)CCOCC3)cn2)cc1` [Example 71]: the pKi on Human recombinant MMP-9 was less than 5.00; at Human recombinant MMP-13 it was 8.71.

Regarding `O=C(Cc1ccc(-c2ccc(S(=O)(=O)C3(C(=O)NO)CCOCC3)cn2)cc1)N1CCCCC1` [Example 72], the pKi was 5.11 on Human recombinant MMP-9 and 8.80 on Human recombinant MMP-13.

In the case of `CCCCNC(=O)Cc1ccc(-c2ccc(S(=O)(=O)C3(C(=O)NO)CCOCC3)cn2)cc1` [Example 73], the pKi at Human recombinant MMP-9 was 5.65; at Human recombinant MMP-13, 7.73.

`CCCCN(C)C(=O)Cc1ccc(-c2ccc(S(=O)(=O)C3(C(=O)NO)CCOCC3)cn2)cc1` [Example 74]: the pKi is 5.31 at Human recombinant MMP-9 and 8.72 at Human recombinant MMP-13.

Turning to `CN(C(=O)Cc1ccc(-c2ccc(S(=O)(=O)C3(C(=O)NO)CCOCC3)cn2)cc1)c1ccc(OC(F)(F)F)cc1` [Example 75], the pKi on Human recombinant MMP-9 is 9.80; on Human recombinant MMP-13, 6.85.
